Read-outs that look alike come from different tables or passages of the source.
Legend:
[1] = tested on: peripheral blood mononuclear cells (PBMC); test: Antibody (IgG, IgM) production by SAC/IL-2-stimulated peripheral blood mononuclear cells; assay type: cell-based; conditions: Homo sapiens, 144 h, 6 days incubation; for inhibition at 0.1 µM: final concentration 0.1 µM; for inhibition at 1 µM: final concentration 1 µM; for inhibition at 10 µM: final concentration 10 µM
Method: Heparinized peripheral blood derived from a healthy person was diluted 2-fold with phosphate buffered saline (PBS) and applied to density-gradient centrifugation using Ficoll-Paque (Pharmacia Biotech) to give peripheral blood mononuclear cells (PBMC). After isolation, PBMC was rinsed with PBS, and suspended in RPMI-1640 medium (K.K. Nikken Seibutsu Igaku Kenkyujo) containing 10% heat-inactivated fetal calf serum (1 × 10^6 cells/mL), followed by addition of 0.05% Staphylococcus aureus Cowan-I (SAC, CALBIOCHEM) and 10 units/mL interleukin-2 (IL-2, Genzyme) for stimulation, as well as by simultaneous addition of Compound No. 130 (final concentration: 0.1, 1 and 10 µM). The mixtures were incubated on a 96-well microtest plate at 37°C for 6 days in an atmosphere of 95% air and 5% CO2. After incubation, supernatants were collected and quantitatively measured for IgG and IgM levels by an enzyme immunoassay (a sandwich immunoassay method using two antibodies).
IgG assay: A preparation containing 40 µg/mL anti-human IgG antibody (F(ab')2, Cappel) in 50 mM sodium carbonate-sodium bicarbonate buffer (pH 9.6) was added to each well of a 96-well microtest plate (Nunc) at a rate of 100 µL/well. The plates were allowed to stand overnight at 4°C, and then rinsed 3 times with PBS containing 0.05% Tween 20. A 4-fold dilution of BlockAce (Snow Brand Milk Products Co., Ltd.) in PBS was added to the 96-well microtest plates (300 µL/well) which were then allowed to stand overnight at 4°C, followed by rinsing similarly. Next, a culture supernatant was serially diluted with a 4-fold dilution of BlockAce in PBS and a series of dilutions were added at a rate of 100 µL/well to the 96-well microtest plates which were then allowed to stand at 25°C for 1 hour, followed by rinsing similarly. Thereafter, a 2500-fold dilution of peroxidase-labeled mouse anti-human IgG antibody (Zymed) was added at a rate of 100 µL/well to the 96-well microtest plates which were then allowed to stand at 25°C for 1 hour, followed by rinsing similarly. A coloring kit for peroxidase (Sumitomo Bakelite) was added at a rate of 100 µL/well to each well which was subjected to an enzyme reaction for 15 to 30 minutes at room temperature, followed by addition of 1 N hydrochloric acid at a rate of 100 µL/well. The resultant colored product was measured for an optical density (OD) at 450 nm for a test wavelength and at 650 nm for a reference wavelength in a microplate reader. IgG levels are calculated using a calibration curve of a standard IgG.
IgM assay: The procedures for the IgG assay as aforementioned were repeated except that the anti-human IgG antibody (F(ab')2) was replaced to anti-human IgM antibody (F(ab')2, Cappel) and the peroxidase-labeled mouse anti-human IgG antibody also to peroxidase-labeled mouse anti-human IgM antibody (Zymed; 2,000-fold dilution). IgM levels are obtained in the same manner as for the IgG assay.

[2] = Body weight gain in sensitized mice; assay type: in vivo; conditions: test compound 50 µg/ear/dose, prednisolone 5 µg/ear/dose, in ethanol painted twice a day, Days 1, 4 and 7, vs solvent control (ethanol)
Method: Experimental atopic dermatitis model mice sensitized in the same manner as in Example 1 were examined for influence on body weight gains.
Each mouse was measured for its body weight not only immediately before the start in painting but also on Days 1, 4 and 7 after the start in painting. Each gain in body weight was calculated and considered to indicate an effect on body weight changes affected by said treatments.

[3] = tested on: mouse experimental atopic dermatitis models; test: Auricle edema in experimental atopic dermatitis model (anti-DNP IgE sensitization, DNFB elicitation); assay type: in vivo, Balb/c mice; conditions: for % Inhibition vLPR: auricle edema Day 7 post-elicitation
[4] = tested on: guinea pig experimental bronchial asthma models; test: Experimental bronchial asthma model (ovalbumin inhalation): airway resistance and asthmatic death;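 also: female Std:Hartley guinea pigs sensitized by inhaling nebulized ovalbumin once daily for 8 consecutive days, 8 to 11 animals per group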
Method: Guinea pigs (female, Std:Hartley, 3 weeks old, 200 to 250 g) were individually housed in a plastic chamber (width, 200 mm; depth, 300 mm; height, 167 mm). Aqueous ovalbumin (10 mg/mL) was administered to the guinea pigs once a day for sensitization by 10 min. inhalation with a nebulizer (5B, Nippon Shoji K.K.: flow rate, 6 L/min.) at a dose of 10 mg/mL during 8 cosecutive days. On Day 7 after the final sensitization, the guinea pigs were housed in a plastic chamber and inhaled using a nebulizer with a solution of ovalbumin (10 mg/mL) in physiological saline for 1 min. for elicitation (Matsumoto, T., et al., The Journal of Pharmacology and Experimental Therapeutics, 269: 1236-1244, 1994). The number of animals employed in the experiment was set to the extent there are at least 6 as individuals escaping asthmatic death. A solution of a test compound (Compound No. 130, 15 mg/kg) in water for injection was administered subcutaneously twice, i.e., 24 hours and 2 hours prior to elicitation. Similarly, the solvent alone was also administered to a negative control group. A suspension of prednisolone (10 mg/kg) in 0.5% aqueous methyl cellulose was administered orally twice, i.e., 24 hours and 2 hours prior to elicitation. Similarly, the solvent alone was also administered to another control group.
The evaluation for efficacies was conducted in terms of airway resistance. For this purpose, an apparatus dedicated to the measurement of airway resistance (K.K. Medical Agent) was employed. Measurement includes setting a guinea pig in a test chamber under a not-anesthetized condition, applying sinusoidal pressure waves of 30 Hz components to a part below the neck of the animal from the back side of the chamber, measuring respiratory waves of 30 Hz components leaking through the mouth (volume of 30 Hz air flow passing through the respiratory tract) in front of the neck, and calculating airway resistance mechanically. Measurement was carried out immediately prior to the first drug treatment (24 hours before elicitation), just prior to elicitation, 10 minutes, 1, 2, 4, 6, and 8 hours post-elicitation.
It was visually observed by a person carrying out said test in terms, of the appearance of cyanosis or suffocative death (asthmatic death) due to respiratory obstruction.
Guinea pigs were sensitized with ovalbumin and asthma was induced on Day 7 after final sensitization in the same manner as in Example 20. The number of animals employed in the experiment was set to the extent there are at least 6 as individuals escaping asthmatic death (8 to 11 animals/group). In the same manner as in Example 20, the animals were measured for airway resistance mechanically and each percent change (%) in airway resistance was calculated (each value just prior to elicitation was set as 100%). Each percent amelioration in airway resistance was calculated from the percent changes in airway resistance according to the following formula: Amelioration in Airway Resistance (%) = 1 -[((Percent Change in Airway Resistance after Drug-Administration) - (Value just prior to Challenge (100)))/((Percent Change in Airway Resistance after Solvent-Administration) - (Value just prior to Challenge (100)))]× 100 [formula]

[5] = read-out: IgG production of PBMC, percent inhibition
[6] = read-out: IgM production of PBMC, percent inhibition
[7] = asthmatic death due to cyanosis within several minutes after elicitation, Compound No. 130 15 mg/kg s.c., prednisolone 10 mg/kg orally, 24 and 2 hours prior to elicitation

CNC(=O)[C@H](Cc1ccc(NC(=N)N)cc1)NC(=O)[C@H](CC(C)C)C(CCCc1ccccc1)C(=O)NO (single isomer, unassigned) [Compound No. 130, N-[4-(N-Hydroxyamino)-2(R)-isobutyl-3(R or S)-(3-phenyltrimethylene)succinyl)-L-4'-guanidophenylalanine-N-methylamide 1 acetate]
inhibition at 0.1 µM [1, 5]: 84.5%
inhibition at 0.1 µM [1, 6]: 32.9%
inhibition at 1 µM [1, 5]: 96.1%
inhibition at 1 µM [1, 6]: 68.1%
inhibition at 10 µM [1, 5]: 96%
inhibition at 10 µM [1, 6]: 63.4%
gain in body weight (FIG. 10) [2]: almost equivalent to that in the solvent control group
inhibitory efficacy on IgE-mediated auricle edema (FIG. 7) ([3]; 50 µg/ear/dose in ethanol painted twice a day, 1 hour pre-elicitation, 0.25, 3, 4, 5 and 6 days post-elicitation): endowed with an inhibitory activity on edemas in any of IPR, LPR, and vLPR
inhibitory efficacy on IgE-mediated auricle edema (FIG. 6) ([3]; 60 mg/kg s.c. 24 and 2 hours prior to elicitation only, compared with prednisolone 10 mg/kg i.p., IPR 1 hour, LPR 1 day, vLPR 7 days): edema-inhibitory activity equivalent to that of prednisolone in IPR and slightly and markedly higher than that of prednisolone in LPR and vLPR, respectively
% Inhibition IPR ([3]; auricle edema 1 hour post-elicitation, test compounds 60 mg/kg s.c., prednisolone 10 mg/kg i.p., once a day, 24 & 2 hours prior to DNFB-elicitation, vs untreated group): 64.4%
% Inhibition LPR ([3]; auricle edema Day 1 post-elicitation, test compounds 60 mg/kg s.c., prednisolone 10 mg/kg i.p., once a day, 24 & 2 hours prior to DNFB-elicitation, vs untreated group): 51.3%
% Inhibition vLPR ([3]; test compounds 60 mg/kg s.c., prednisolone 10 mg/kg i.p., daily from 3 to 6 days after DNFB-elicitation): 52.7%
% Inhibition vLPR ([3]; test compounds 60 mg/kg s.c., prednisolone 10 mg/kg i.p., daily from 1 day prior to through 5 days after DNFB-elicitation): 79.0%
airway resistance (FIG. 12) ([4]; 15 mg/kg s.c. 24 hours and 2 hours prior to elicitation, IAR 1 hour, LAR 6 hours post-elicitation): significant reduction of the increased airway resistance
% Mortality [4, 7]: 0.0%
(Dead Animals)/(Tested Animals) [4, 7]: 0/10

Reference: EP1101492A1, “NOVEL REMEDIES FOR ALLERGIC DISEASES” (FUJI YAKUHIN KOGYO KABUSHIKI KAISHA, priority 1998, dated 2000)
